Results: US20240398828A1, “HETERO-ATOM CONTAINING COMPOUNDS AND USES THEREOF” (Kumquat Biosciences Inc., priority 2021, published 2024)

Columns and labels:
PTPN2 (i.e., TC-PTP) = target: T1, PTPN2 (i.e., TC-PTP) (Homo sapiens, UniProt P17706); experiment: Phosphatase activity assay (DiFMUP substrate), PTPN2; format: biochemical; settings: compounds binned ≤1 uM or >1 uM
T1 sequence (P17706 1-415): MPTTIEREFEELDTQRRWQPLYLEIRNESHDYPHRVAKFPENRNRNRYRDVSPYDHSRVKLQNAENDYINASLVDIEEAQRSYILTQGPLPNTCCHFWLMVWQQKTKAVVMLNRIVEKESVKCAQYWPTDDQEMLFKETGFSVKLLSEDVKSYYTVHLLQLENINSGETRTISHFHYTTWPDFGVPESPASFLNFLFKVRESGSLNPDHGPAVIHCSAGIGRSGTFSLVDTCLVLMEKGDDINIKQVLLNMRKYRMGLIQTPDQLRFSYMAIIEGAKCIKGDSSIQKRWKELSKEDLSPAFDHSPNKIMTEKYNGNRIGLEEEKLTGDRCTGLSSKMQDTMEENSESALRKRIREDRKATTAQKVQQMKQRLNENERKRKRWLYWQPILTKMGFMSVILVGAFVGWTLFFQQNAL
How it was run: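 Read-out is continuous fluorescence of DiFMU (360 nm excitation, 450 nm emission) over about 15-30 minutes, with DiFMUP substrate at the enzyme's independently determined Km (PTPN2 approx. 45 μM final). Buffer: 50 mM HEPES pH 7.5, 150 mM NaCl, 0.5 mM EDTA, 1 mM DTT, 0.001% Tween-20, room temperature; initial rates versus 10-point dilution fitted for IC50, at least duplicate.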

PTPN1 (i.e., PTP1B) = target: T2, PTPN1 (i.e., PTP1B) (Homo sapiens, UniProt P18031); experiment: Phosphatase activity assay (DiFMUP substrate), PTP1B; format: biochemical; settings: compounds binned ≤1 uM or >1 uM
T2 sequence (P18031 1-435): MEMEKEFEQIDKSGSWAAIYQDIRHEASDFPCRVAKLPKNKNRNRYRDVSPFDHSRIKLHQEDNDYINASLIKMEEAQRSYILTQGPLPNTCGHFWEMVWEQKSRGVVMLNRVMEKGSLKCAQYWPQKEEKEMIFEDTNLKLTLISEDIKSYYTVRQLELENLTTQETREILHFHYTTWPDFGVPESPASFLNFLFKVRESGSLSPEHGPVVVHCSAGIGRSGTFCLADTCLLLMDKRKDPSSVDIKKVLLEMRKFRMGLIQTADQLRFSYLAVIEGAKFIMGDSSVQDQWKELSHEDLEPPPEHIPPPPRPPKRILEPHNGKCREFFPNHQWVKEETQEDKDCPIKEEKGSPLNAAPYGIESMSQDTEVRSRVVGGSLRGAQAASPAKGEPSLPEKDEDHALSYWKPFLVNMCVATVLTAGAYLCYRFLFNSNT
How it was run: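 Enzyme (e.g. PTPN2 0.025 ng/ul) mixed about 2 min with compound at 10 serial concentrations in 50 mM HEPES pH 7.5, 150 mM NaCl, 0.5 mM EDTA, 1 mM DTT, 0.001% Tween-20 at room temperature. DiFMUP added at each enzyme's Km (about 45 μM for PTPN2). DiFMU fluorescence (ex 360/em 450 nm) followed 15-30 min; IC50 from 4-parameter fit of rates.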

| Structure (SMILES) | IC50 (PTPN2 (i.e., TC-PTP)) [nM] | IC50 (PTPN1 (i.e., PTP1B)) [nM] |
| --- | --- | --- |
| Cn1nc(C2CC2)cc1-c1ccc(O)c(N2CC(=O)NS2(=O)=O)c1F [Compound 278, 5-(3-(3-cyclopropyl-1-methyl-1H-pyrazol-5-yl)-2-fluoro-6-hydroxyphenyl)-1,2,5-thiadiazolidin-3-one 1,1-dioxide] | ≤ 1000 | ≤ 1000 |
| CC1(N)CCN(c2cc(-c3ccc(O)c(N4CC(=O)NS4(=O)=O)c3F)[nH]n2)C1 (stereo not shown) [Compound 279, 5-(3-(3-(3-amino-3-methylpyrrolidin-1-yl)-1H-pyrazol-5-yl)-2-fluoro-6-hydroxyphenyl)-1,2,5-thiadiazolidin-3-one 1,1-dioxide] | ≤ 1000 | ≤ 1000 |
| N#C[C@H]1CC[C@@H](n2cc(-c3ccc(O)c(N4CC(=O)NS4(=O)=O)c3F)cn2)CC1 [Compound 280, (1s,4s)-4-(4-(3-(1,1-dioxido-4-oxo-1,2,5-thiadiazolidin-2-yl)-2-fluoro-4-hydroxyphenyl)-1H-pyrazol-1-yl)cyclohexane-1-carbonitrile] | ≤ 1000 | ≤ 1000 |
| O=C1CN(c2c(O)ccc(-c3cc(C4CCC4)n[nH]3)c2F)S(=O)(=O)N1 [Compound 281, 5-(3-(3-cyclobutyl-1H-pyrazol-5-yl)-2-fluoro-6-hydroxyphenyl)-1,2,5-thiadiazolidin-3-one 1,1-dioxide] | ≤ 1000 | ≤ 1000 |
| CC1C=C(c2ccc(O)c(N3CC(=O)NS3(=O)=O)c2F)CN1 (stereo not shown) [Compound 282, 5-(2-fluoro-6-hydroxy-3-(5-methyl-2,5-dihydro-1H-pyrrol-3-yl)phenyl)-1,2,5-thiadiazolidin-3-one 1,1-dioxide] | ≤ 1000 | ≤ 1000 |
| Cc1cc(-c2ccc(O)c(N3CC(=O)NS3(=O)=O)c2F)sn1 [Compound 283, 5-(2-fluoro-6-hydroxy-3-(3-methylisothiazol-5-yl)phenyl)-1,2,5-thiadiazolidin-3-one 1,1-dioxide] | ≤ 1000 | ≤ 1000 |
| Cc1cc(-c2ccc(O)c(N3CC(=O)NS3(=O)=O)c2F)n(C)n1 [Compound 284, 5-(3-(1,3-dimethyl-1H-pyrazol-5-yl)-2-fluoro-6-hydroxyphenyl)-1,2,5-thiadiazolidin-3-one 1,1-dioxide] | ≤ 1000 | ≤ 1000 |
| O=C1CN(c2c(O)ccc(C3CCN(S(=O)(=O)C4CC4)CC3)c2F)S(=O)(=O)N1 [Compound 285, 5-(3-(1-(cyclopropylsulfonyl)piperidin-4-yl)-2-fluoro-6-hydroxyphenyl)-1,2,5-thiadiazolidin-3-one 1,1-dioxide] | ≤ 1000 | ≤ 1000 |
| O=C1CN(c2c(O)ccc(-c3cc(N4CCOCC4)n[nH]3)c2F)S(=O)(=O)N1 [Compound 286, 5-(2-fluoro-6-hydroxy-3-(3-morpholino-1H-pyrazol-5-yl)phenyl)-1,2,5-thiadiazolidin-3-one 1,1-dioxide] | ≤ 1000 | ≤ 1000 |
| O=C1CN(c2c(O)ccc(-c3cnn(CC4CC5CCC(C4)N5C(=O)C4CC4)c3)c2F)S(=O)(=O)N1 (stereo not shown) [Compound 295, 5-(3-(1-((8-(cyclopropanecarbonyl)-8-azabicyclo[3.2.1]octan-3-yl)methyl)-1H-pyrazol-4-yl)-2-fluoro-6-hydroxyphenyl)-1,2,5-thiadiazolidin-3-one 1,1-dioxide] | ≤ 1000 | ≤ 1000 |

The next lines start with the values.

| IC50 (PTPN2 (i.e., TC-PTP)) [nM] | IC50 (PTPN1 (i.e., PTP1B)) [nM] | Structure (SMILES) |
| --- | --- | --- |
| ≤ 1000 | ≤ 1000 | N#Cc1ccc(-n2cnc(-c3ccc(O)c(N4CC(=O)NS4(=O)=O)c3F)c2)cc1F [Compound 287, 4-(4-(3-(1,1-dioxido-4-oxo-1,2,5-thiadiazolidin-2-yl)-2-fluoro-4-hydroxyphenyl)-1H-imidazol-1-yl)-2-fluorobenzonitrile] |
| ≤ 1000 | ≤ 1000 | CC(C)CNCc1cc(-c2ccc(O)c(N3CC(=O)NS3(=O)=O)c2F)nn1C [Compound 288, 5-(2-fluoro-6-hydroxy-3-(5-((isobutylamino)methyl)-1-methyl-1H-pyrazol-3-yl)phenyl)-1,2,5-thiadiazolidin-3-one 1,1-dioxide] |
| ≤ 1000 | ≤ 1000 | O=C1CN(c2c(O)ccc(-c3cn(-c4ccc(F)c(F)c4)cn3)c2F)S(=O)(=O)N1 [Compound 289, 5-(3-(1-(3,4-difluorophenyl)-1H-imidazol-4-yl)-2-fluoro-6-hydroxyphenyl)-1,2,5-thiadiazolidin-3-one 1,1-dioxide] |
| ≤ 1000 | ≤ 1000 | CC(C)CCCc1cc(-c2ccc(O)c(N3CC(=O)NS3(=O)=O)c2F)[nH]n1 [Compound 290, 5-(2-fluoro-6-hydroxy-3-(3-(4-methylpentyl)-1H-pyrazol-5-yl)phenyl)-1,2,5-thiadiazolidin-3-one 1,1-dioxide] |
| ≤ 1000 | ≤ 1000 | O=C1CN(c2c(O)ccc(C3=CCOC3)c2F)S(=O)(=O)N1 [Compound 291, 5-(3-(2,5-dihydrofuran-3-yl)-2-fluoro-6-hydroxyphenyl)-1,2,5-thiadiazolidin-3-one 1,1-dioxide] |
| ≤ 1000 | ≤ 1000 | O=C1CN(c2c(O)ccc(-c3ccc(NS(=O)(=O)C4CC4)cc3)c2F)S(=O)(=O)N1 [Compound 292, N-(3′-(1,1-dioxido-4-oxo-1,2,5-thiadiazolidin-2-yl)-2′-fluoro-4′-hydroxy-[1,1′-biphenyl]-4-yl)cyclopropanesulfonamide] |
| ≤ 1000 | ≤ 1000 | CC(C)(C)n1cc(-c2ccc(O)c(N3CC(=O)NS3(=O)=O)c2F)cn1 [Compound 293, 5-(3-(1-(tert-butyl)-1H-pyrazol-4-yl)-2-fluoro-6-hydroxyphenyl)-1,2,5-thiadiazolidin-3-one 1,1-dioxide] |
| ≤ 1000 | ≤ 1000 | O=C1CN(c2c(O)ccc(C3=CCSCC3)c2F)S(=O)(=O)N1 [Compound 294, 5-(3-(3,6-dihydro-2H-thiopyran-4-yl)-2-fluoro-6-hydroxyphenyl)-1,2,5-thiadiazolidin-3-one 1,1-dioxide] |
| ≤ 1000 | ≤ 1000 | O=C1CN(c2c(O)ccc(C3=CCN(C4CC4)C3)c2F)S(=O)(=O)N1 [Compound 296, 5-(3-(1-cyclopropyl-2,5-dihydro-1H-pyrrol-3-yl)-2-fluoro-6-hydroxyphenyl)-1,2,5-thiadiazolidin-3-one 1,1-dioxide] |
| ≤ 1000 | ≤ 1000 | CC(N)c1cc(-c2ccc(O)c(N3CC(=O)NS3(=O)=O)c2F)[nH]n1 (stereo not shown) [Compound 297, 5-(3-(3-(1-aminoethyl)-1H-pyrazol-5-yl)-2-fluoro-6-hydroxyphenyl)-1,2,5-thiadiazolidin-3-one 1,1-dioxide] |
| ≤ 1000 | ≤ 1000 | N#Cc1ccccc1-n1cnc(-c2ccc(O)c(N3CC(=O)NS3(=O)=O)c2F)c1 [Compound 298, 2-(4-(3-(1,1-dioxido-4-oxo-1,2,5-thiadiazolidin-2-yl)-2-fluoro-4-hydroxyphenyl)-1H-imidazol-1-yl)benzonitrile] |
| ≤ 1000 | ≤ 1000 | Cc1cn(-c2ccc(O)c(N3CC(=O)NS3(=O)=O)c2F)nc1O [Compound 299, 5-(2-fluoro-6-hydroxy-3-(3-hydroxy-4-methyl-1H-pyrazol-1-yl)phenyl)-1,2,5-thiadiazolidin-3-one 1,1-dioxide] |
| ≤ 1000 | ≤ 1000 | CN(C)c1cc(-c2ccc(O)c(N3CC(=O)NS3(=O)=O)c2F)[nH]n1 [Compound 300, 5-(3-(3-(dimethylamino)-1H-pyrazol-5-yl)-2-fluoro-6-hydroxyphenyl)-1,2,5-thiadiazolidin-3-one 1,1-dioxide] |
